In ChEMBL document CHEMBL5608211, “Antibody-drug conjugates for targeted cancer therapy: Recent advances in potential payloads” (Eur J Med Chem, 2024):

Columns and labels:
EMT6 = experiment: Cytotoxicity against mouse EMT6 cells assessed as inhibition of cell growth incubated for 3 days by SRB assay; type: functional, cell-based; conditions: EMT6, 72 h
DEL = experiment: Cytotoxicity against human DEL cells assessed as inhibition of cell growth incubated for 4 days by CellTiter-Glo luminescent assay; type: functional, cell-based; conditions: 96 h
SK-BR-3 = experiment: Cytotoxicity against human SK-BR-3 cells incubated for 144 hrs by CellTiter-Glo luminescent assay; type: functional, cell-based; conditions: SK-BR-3, 144 h
NCI-H226 = experiment: Cytotoxicity against human NCI-H226 cells assessed as cell growth inhibition by measuring lethal concentration by MTT assay; type: functional; conditions: read-out: LC50 (the source's name)
SN12C = experiment: Cytotoxicity against human SN12C cells assessed as cell growth inhibition by measuring lethal concentration by MTT assay; type: functional; conditions: read-out: LC50 (the source's name)
MOLT-4 = experiment: Cytotoxicity against human MOLT-4 cells assessed as cell growth inhibition by measuring lethal concentration by MTT assay; type: functional; conditions: read-out: LC50 (the source's name)
NCI-H23 = experiment: Cytotoxicity against human NCI-H23 cells assessed as cell growth inhibition by measuring lethal concentration by MTT assay; type: functional; conditions: read-out: LC50 (the source's name)
KM12 = experiment: Cytotoxicity against human KM12 cells assessed as cell growth inhibition by measuring lethal concentration by MTT assay; type: functional; conditions: read-out: LC50 (the source's name)
Malme-3M = experiment: Cytotoxicity against human Malme-3M cells assessed as cell growth inhibition by measuring lethal concentration by MTT assay; type: functional; conditions: read-out: LC50 (the source's name)
DU-145 = experiment: Cytotoxicity against human DU-145 cells assessed as cell growth inhibition by measuring lethal concentration by MTT assay; type: functional; conditions: read-out: LC50 (the source's name)
SK-MEL-28 = experiment: Cytotoxicity against human SK-MEL-28 cells assessed as cell growth inhibition by measuring lethal concentration by MTT assay; type: functional; conditions: read-out: LC50 (the source's name)
[1] = Cytotoxicity against human […] cells assessed as cell growth inhibition by measuring lethal concentration by MTT assay; type: functional; conditions: read-out: LC50 (the source's name)
OVCAR-4 = experiment: Cytotoxicity against human OVCAR-4 cells assessed as cell growth inhibition by measuring lethal concentration by MTT assay; type: functional; conditions: read-out: LC50 (the source's name)
A549 = experiment: Cytotoxicity against human A549 cells assessed as cell growth inhibition by measuring lethal concentration by MTT assay; type: functional; conditions: read-out: LC50 (the source's name)
SF-268 = experiment: Cytotoxicity against human SF-268 cells assessed as cell growth inhibition by measuring lethal concentration by MTT assay; type: functional; conditions: read-out: LC50 (the source's name)
HCT-15 = experiment: Cytotoxicity against human HCT-15 cells assessed as cell growth inhibition by measuring lethal concentration by MTT assay; type: functional; conditions: read-out: LC50 (the source's name)
TK-10 = experiment: Cytotoxicity against human TK-10 cells assessed as cell growth inhibition by measuring lethal concentration by MTT assay; type: functional; conditions: read-out: LC50 (the source's name)
HL-60 = experiment: Cytotoxicity against human HL-60 cells assessed as cell growth inhibition by measuring lethal concentration by MTT assay; type: functional; conditions: read-out: LC50 (the source's name)
UO-31 = experiment: Cytotoxicity against human UO-31 cells assessed as cell growth inhibition by measuring lethal concentration by MTT assay; type: functional; conditions: read-out: LC50 (the source's name)
M14 = experiment: Cytotoxicity against human M14 cells assessed as cell growth inhibition by measuring lethal concentration by MTT assay; type: functional; conditions: read-out: LC50 (the source's name)
RPMI-8226 = experiment: Cytotoxicity against human RPMI-8226 cells assessed as cell growth inhibition by measuring lethal concentration by MTT assay; type: functional; conditions: read-out: LC50 (the source's name)
MDA-MB-435 = experiment: Cytotoxicity against human MDA-MB-435 cells assessed as cell growth inhibition by measuring lethal concentration by MTT assay; type: functional; conditions: read-out: LC50 (the source's name)
OVCAR-3 = experiment: Cytotoxicity against human OVCAR-3 cells assessed as cell growth inhibition by measuring lethal concentration by MTT assay; type: functional; conditions: read-out: LC50 (the source's name)
SK-MEL-2 = experiment: Cytotoxicity against human SK-MEL-2 cells assessed as cell growth inhibition by measuring lethal concentration by MTT assay; type: functional; conditions: read-out: LC50 (the source's name)
HOP-92 = experiment: Cytotoxicity against human HOP-92 cells assessed as cell growth inhibition by measuring lethal concentration by MTT assay; type: functional; conditions: read-out: LC50 (the source's name)
SK-MEL-5 = experiment: Cytotoxicity against human SK-MEL-5 cells assessed as cell growth inhibition by measuring lethal concentration by MTT assay; type: functional; conditions: read-out: LC50 (the source's name)
NCI-H460 = experiment: Cytotoxicity against human NCI-H460 cells assessed as cell growth inhibition by measuring lethal concentration by MTT assay; type: functional; conditions: read-out: LC50 (the source's name)
PC-3 = experiment: Cytotoxicity against human PC-3 cells assessed as cell growth inhibition by measuring lethal concentration by MTT assay; type: functional; conditions: read-out: LC50 (the source's name)
HCC 2998 = experiment: Cytotoxicity against human HCC 2998 cells assessed as cell growth inhibition by measuring lethal concentration by MTT assay; type: functional; conditions: read-out: LC50 (the source's name)
MDA-N = experiment: Cytotoxicity against human MDA-N cells assessed as cell growth inhibition by measuring lethal concentration by MTT assay; type: functional; conditions: read-out: LC50 (the source's name)
U-251 = experiment: Cytotoxicity against human U-251 cells assessed as cell growth inhibition by measuring lethal concentration by MTT assay; type: functional; conditions: read-out: LC50 (the source's name)
A498 = experiment: Cytotoxicity against human A498 cells assessed as cell growth inhibition by measuring lethal concentration by MTT assay; type: functional; conditions: read-out: LC50 (the source's name)
NCI-H522 = experiment: Cytotoxicity against human NCI-H522 cells assessed as cell growth inhibition by measuring lethal concentration by MTT assay; type: functional; conditions: read-out: LC50 (the source's name)
ACHN = experiment: Cytotoxicity against human ACHN cells assessed as cell growth inhibition by measuring lethal concentration by MTT assay; type: functional; conditions: read-out: LC50 (the source's name)
EKVX = experiment: Cytotoxicity against human EKVX cells assessed as cell growth inhibition by measuring lethal concentration by MTT assay; type: functional; conditions: read-out: LC50 (the source's name)
COLO 205 = experiment: Cytotoxicity against human COLO 205 cells assessed as cell growth inhibition by measuring lethal concentration by MTT assay; type: functional; conditions: read-out: LC50 (the source's name)
T47D = experiment: Cytotoxicity against human T47D cells assessed as cell growth inhibition by measuring lethal concentration by MTT assay; type: functional; conditions: read-out: LC50 (the source's name)
OVCAR-5 = experiment: Cytotoxicity against human OVCAR-5 cells assessed as cell growth inhibition by measuring lethal concentration by MTT assay; type: functional; conditions: read-out: LC50 (the source's name)
SK-OV-3 = experiment: Cytotoxicity against human SK-OV-3 cells assessed as cell growth inhibition by measuring lethal concentration by MTT assay; type: functional; conditions: read-out: LC50 (the source's name)
CAKI-1 = experiment: Cytotoxicity against human CAKI-1 cells assessed as cell growth inhibition by measuring lethal concentration by MTT assay; type: functional; conditions: read-out: LC50 (the source's name)
HCT-116 = experiment: Cytotoxicity against human HCT-116 cells assessed as cell growth inhibition by measuring lethal concentration by MTT assay; type: functional; conditions: read-out: LC50 (the source's name)
SF-539 = experiment: Cytotoxicity against human SF-539 cells assessed as cell growth inhibition by measuring lethal concentration by MTT assay; type: functional; conditions: read-out: LC50 (the source's name)
Hs-578T = experiment: Cytotoxicity against human Hs-578T cells assessed as cell growth inhibition by measuring lethal concentration by MTT assay; type: functional; conditions: read-out: LC50 (the source's name)
SF-295 = experiment: Cytotoxicity against human SF-295 cells assessed as cell growth inhibition by measuring lethal concentration by MTT assay; type: functional; conditions: read-out: LC50 (the source's name)
HT-29 = experiment: Cytotoxicity against human HT-29 cells assessed as cell growth inhibition by measuring lethal concentration by MTT assay; type: functional; conditions: read-out: LC50 (the source's name)
786-0 = experiment: Cytotoxicity against human 786-0 cells assessed as cell growth inhibition by measuring lethal concentration by MTT assay; type: functional; conditions: read-out: LC50 (the source's name)
NCI/ADR-RES = experiment: Cytotoxicity against human MCF7ADR cells assessed as cell growth inhibition by measuring lethal concentration by MTT assay; type: functional; conditions: read-out: LC50 (the source's name)
OVCAR-8 = experiment: Cytotoxicity against human OVCAR-8 cells assessed as cell growth inhibition by measuring lethal concentration by MTT assay; type: functional; conditions: read-out: LC50 (the source's name)
UACC-257 = experiment: Cytotoxicity against human UACC-257 cells assessed as cell growth inhibition by measuring lethal concentration by MTT assay; type: functional; conditions: read-out: LC50 (the source's name)
SW-620 = experiment: Cytotoxicity against human SW620 cells assessed as cell growth inhibition by measuring lethal concentration by MTT assay; type: functional; conditions: read-out: LC50 (the source's name)
CCRF-CEM = experiment: Cytotoxicity against human CCRF-CEM cells assessed as cell growth inhibition by measuring lethal concentration by MTT assay; type: functional; conditions: read-out: LC50 (the source's name)
SNB-19 = experiment: Cytotoxicity against human SNB-19 cells assessed as cell growth inhibition by measuring lethal concentration by MTT assay; type: functional; conditions: read-out: LC50 (the source's name)
HOP-62 = experiment: Cytotoxicity against human HOP-62 cells assessed as cell growth inhibition by measuring lethal concentration by MTT assay; type: functional; conditions: read-out: LC50 (the source's name)
SNB-75 = experiment: Cytotoxicity against human SNB-75 cells assessed as cell growth inhibition by measuring lethal concentration by MTT assay; type: functional; conditions: read-out: LC50 (the source's name)
IGROV-1 = experiment: Cytotoxicity against human IGROV-1 cells assessed as cell growth inhibition by measuring lethal concentration by MTT assay; type: functional; conditions: read-out: LC50 (the source's name)
BT-549 = experiment: Cytotoxicity against human BT-549 cells assessed as cell growth inhibition by measuring lethal concentration by MTT assay; type: functional; conditions: read-out: LC50 (the source's name)
UACC-62 = experiment: Cytotoxicity against human UACC-62 cells assessed as cell growth inhibition by measuring lethal concentration by MTT assay; type: functional; conditions: read-out: LC50 (the source's name)

Compound: COc1cc2c(cc1OCCCCCC(=O)N1C[C@H](CCl)c3c1cc(O)c1ccccc31)N=C[C@@H]1CCCN1C2=O
- IC50 (EMT6): 0.0078 nM

Compound: CC[C@@]1(O)C(=O)OCc2c1cc1n(c2=O)Cc2c-1nc1cc3c(cc1c2CN)OCO3
- IC50 (DEL): 0.7 nM

Compound: Cc1cccc2c(O)cc3c(c12)[C@H](CCl)CN3C(=O)c1cn2cc(NC(=O)c3ccc(O)cc3)ccc2n1
- IC50 (SK-BR-3): 0.09 nM

Compound: C=C1C[C@H]2C=Nc3cc(OCCCCCCCCCCOc4cc5c(cc4OC)C(=O)N4CC(=C)C[C@H]4C=N5)c(OC)cc3C(=O)N2C1
- CC50 (NCI-H226): 0.14 nM
- CC50 (SN12C): 0.14 nM
- CC50 (MOLT-4): 0.14 nM
- CC50 (NCI-H23): 0.14 nM
- CC50 (KM12): 0.14 nM
- CC50 (Malme-3M): 0.14 nM
- CC50 (DU-145): 0.14 nM
- CC50 (SK-MEL-28): 0.14 nM
- CC50 [1]: 0.14 nM
- CC50 (OVCAR-4): 0.14 nM
- CC50 (A549): 0.14 nM
- CC50 (SF-268): 0.14 nM
- CC50 (HCT-15): 0.14 nM
- CC50 (TK-10): 0.14 nM
- CC50 (HL-60): 0.14 nM
- CC50 (UO-31): 0.14 nM
- CC50 (M14): 0.14 nM
- CC50 (RPMI-8226): 0.14 nM
- CC50 (MDA-MB-435): 0.14 nM
- CC50 (OVCAR-3): 0.14 nM
- CC50 (SK-MEL-2): 0.14 nM
- CC50 (HOP-92): 0.14 nM
- CC50 (SK-MEL-5): 0.14 nM
- CC50 (NCI-H460): 0.14 nM
- CC50 (PC-3): 0.14 nM
- CC50 (HCC 2998): 0.14 nM
- CC50 (MDA-N): 0.14 nM
- CC50 (U-251): 0.14 nM
- CC50 (A498): 0.14 nM
- CC50 (NCI-H522): 0.14 nM
- CC50 (ACHN): 0.14 nM
- CC50 (EKVX): 0.14 nM
- CC50 (COLO 205): 0.14 nM
- CC50 (T47D): 0.14 nM
- CC50 (OVCAR-5): 0.14 nM
- CC50 (SK-OV-3): 0.14 nM
- CC50 (CAKI-1): 0.14 nM
- CC50 (HCT-116): 0.14 nM
- CC50 (SF-539): 0.14 nM
- CC50 (Hs-578T): 0.14 nM
- CC50 (SF-295): 0.14 nM
- CC50 (HT-29): 0.14 nM
- CC50 (786-0): 0.14 nM
- CC50 (NCI/ADR-RES): 0.14 nM
- CC50 (OVCAR-8): 0.14 nM
- CC50 (UACC-257): 0.14 nM
- CC50 (SW-620): 0.14 nM
- CC50 (CCRF-CEM): 0.14 nM
- CC50 (SNB-19): 0.14 nM
- CC50 (HOP-62): 0.14 nM
- CC50 (SNB-75): 0.14 nM
- CC50 (IGROV-1): 0.14 nM
- CC50 (BT-549): 0.14 nM
- CC50 (UACC-62): 0.14 nM
